Reference: patent US12679801B2, “Amino lipid and preparation method and application thereof” (Shenzhen MagicRNA Biotechnology Co., Ltd., priority 2022, dated 2026)

test system: BMDC primary cells; assay: Luc mRNA LNP transfection on BMDC primary cells (Embodiment 21, Table 9); format: cell-based, C57BL/6 mice; conditions: 16 h, ONE-Glo Luciferase
Experimental: Preparation method: the same as that in Embodiment 17.
Animal preparation: 6-week-old female C57BL/6 mice with the body weight about 20 g were selected. A feeding environment was an SPF stage feeding room. Animal tests were strictly performed according to the guide of the national health institute and the animal ethics requirements.
(§1) Cell acquisition: C57BL/6 mice were killed through cervical dislocation, and were soaked for 5 min in 75% ethyl alcohol. Dissection was performed to obtain thigh and calf tibiae of the mice. Attached muscles were removed to expose sclerotin. Then, bone marrow in tibiae was blown out by using a 1 mL injector sucked with PBS. After the bone marrow was blown away, impurities were filtered away by a 50 μm filter screen. A red blood cell lysis buffer (3-4 mL) was added into an obtained filtrate. Then, after placement for 5 min, 800 g centrifugation was performed for 5 min to remove a supernatant. The obtained cells were placed into a 1640 culture medium (containing 10% fetal calf serum, 20 ng/mL GMCSF and 10 ng/mL IL4) to be resuspended, and were inoculated into a 6-well plate at an inoculation density of 100000 cells/ml culture medium. The materials were placed into a 37° C. cell incubator containing 5% CO2. Half liquid change was performed once every 2 days. Suspended cells and loose wall attached cells were collected on the seventh day, and were inoculated to a 96-well all-white ELISA plate at the inoculation density of 20000 cells per well, and the volume of a culture medium was 100 μL.
(§2) Cell transfection: lipid nanoparticles coated with luciferase mRNA were added into a 96-well white ELISA plate laid with primary cells. The adding volume of the mRNA lipid nanoparticles in each well was controlled to be 10 μL. Then, the materials were put into a 37° C. incubator containing 5% CO2 for 16 h.
Transfection efficiency detection: 20 μL of a substrate ONE-Glo™ Luciferase was added into each well of a 96-well all-white ELISA plate, and after 1 min, detection was performed by a multifunctional or multimode microplate reader.

SMILES	Luciferase luminescence intensity
CCCCCCCCCC(CCCCCCCCC)C(=O)OCC(CCCCCC)OC(=O)CCCCN(C)C (centres unmarked) [E3C116A11]	4.4E+04
CCCCCCCCCCC(CCCC)C(=O)OCC(CCCCCCCC)OC(=O)CCCN(C)C (centres unmarked) [E5C104A9]	5.2E+04
CCCCCCCCCCC(CCCC)C(=O)OCC(CCCCCCCC)OC(=O)CCCCN(C)C (centres unmarked) [E5C104A11]	4.0E+04
CCCCCCCCCC(CCCCC)C(=O)OCC(CCCCCCCC)OC(=O)CCCN(C)C (centres unmarked) [E5C109A9]	3.9E+03
CCCCCCCCC(COC(=O)C(CCCCCCC)CCCCCCC)OC(=O)CCCN(C)C (centres unmarked) [E5C114A9]	8.6E+03
CCCCCCCCC(COC(=O)C(CCCCCCC)CCCCCCC)OC(=O)CCCCN(C)C (centres unmarked) [E5C114A11]	4.6E+04
CCCCCCCCC(COC(=O)C(CCCCCCCC)CCCCCCCC)OC(=O)CCCN(C)C (centres unmarked) [E5C115A9]	2.7E+04
CCCCCCCCC(COC(=O)C(CCCCCCCC)CCCCCCCC)OC(=O)CCCCN(C)C (centres unmarked) [E5C115A11]	1.1E+05
CCCCCCCCCC(CCCCCCCCC)C(=O)OCC(CCCCCCCC)OC(=O)CCCCN(C)C (centres unmarked) [E5C116A11]	6.2E+04
CCCCCCCCCCC(CCCC)CC(=O)OCC(CCCCCCCC)OC(=O)CCCN(C)C (centres unmarked) [E5C119A9]	4.1E+04
CCCCCCCCC(COC(=O)CC(CCCCCCC)CCCCCCC)OC(=O)CCCN(C)C (centres unmarked) [E5C128A9]	3.9E+04
CCCCCCCCC(COC(=O)CC(CCCCCCC)CCCCCCC)OC(=O)CCCCN(C)C (centres unmarked) [E5C128A11]	4.3E+04
CCCCCCCCCCC(COC(=O)C(CCCC)CCCCCCCCCC)OC(=O)CCCN(C)C (centres unmarked) [E7C104A9]	3.9E+04
CCCCCCCCCCCCC(CCCC)C(=O)OCC(CCCCCCCCCC)OC(=O)CCCN(C)C (centres unmarked) [E7C106A9]	3.9E+04
CCCCCCCCCCC(COC(=O)C(CCCCCCC)CCCCCCC)OC(=O)CCCN(C)C (centres unmarked) [E7C114A9, 2-((4-(Dimethylamino)Butanoyl)Oxy) Dodecyl 2-Heptylnonanoate]	6.6E+04
CCCCCCCCCCC(COC(=O)C(CCCCCCC)CCCCCCC)OC(=O)CCCCN(C)C (centres unmarked) [E7C114A11]	9.9E+04
CCCCCCCCCCC(COC(=O)C(CCCCCCCC)CCCCCCCC)OC(=O)CCCN(C)C (centres unmarked) [E7C115A9]	5.6E+04
CCCCCCCCCCC(COC(=O)C(CCCCCCCCC)CCCCCCCCC)OC(=O)CCCCN(C)C (centres unmarked) [E7C116A11]	9.2E+04
CCCCCCCCCCC(COC(=O)CC(CCCCC)CCCCCCCCC)OC(=O)CCCN(C)C (centres unmarked) [E7C123A9]	4.3E+04
CCCCCCCCCCC(COC(=O)CC(CCCCCC)CCCCCCCC)OC(=O)CCCCN(C)C (centres unmarked) [E7C126A11]	3.9E+04
CCCCCCCCCCC(COC(=O)CC(CCCCCCC)CCCCCCC)OC(=O)CCCN(C)C (centres unmarked) [E7C128A9]	3.5E+04
CCCCCCCCCCC(COC(=O)CC(CCCCCCC)CCCCCCC)OC(=O)CCCCN(C)C (centres unmarked) [E7C128A11]	3.6E+04

test system: BMDC primary cells; assay: Luc mRNA LNP transfection on BMDC primary cells (Embodiment 13, Table 3); format: cell-based, C57BL/6 mice; conditions: 16 h, ONE-Glo Luciferase
Experimental: Preparation method: the same as that described in Embodiment 7.
Animal preparation: 6-week-old female C57BL/6 mice with the body weight about 20 g were selected. The feeding environment was an SPF stage feeding room. Animal tests were strictly performed according to the guide of the national health institute and the animal ethics requirements.
as §1, with “remove the” for “remove a”, “10 ng/ml” for “10 ng/mL”, “were” for “were inoculated to a 96-well all-white ELISA plate at the inoculation density of 20000 cells”
as §2, with “all-white” for “white”
Transfection efficiency detection: 20 μL of a substrate ONE-Glo™ Luciferase was added into each well of a 96-well all-white ELISA plate. After 1 min, detection was performed by a multifunctional or multimode microplate reader.

SMILES	Luciferase luminescence intensity
C=CCCCCC(COC(=O)C(CCCCCCC)CCCCCCCCC)OC(=O)CCCCN(C)C (centres unmarked) [E15C79A11]	3.0E+ 04
C=CCCCCC(COC(=O)C(CCCCCCC)CCCCCCCCC)OC(=O)CCCCCN(C)C (centres unmarked) [E15C79A12]	4.4E+ 04
CCCCCCCCCCCCCC(=O)OCC(CCCCCC(CC)CC)OC(=O)C(C)CCN(C)C (centres unmarked) [E20C9A10]	2.7E+ 04
CCCCCCCCCCCCCC(=O)OCC(CCCCCC(CC)CC)OC(=O)CCCCN(C)C (centres unmarked) [E20C9A11]	4.0E+ 04
CCCCCCCCCCCCCCC(=O)OCC(CCCCCC(CC)CC)OC(=O)CCCN(C)C (centres unmarked) [E20C10A9]	4.8E+ 04
CCCCCCCCCCCCCCC(=O)OCC(CCCCCC(CC)CC)OC(=O)C(C)CCN(C)C (centres unmarked) [E20C10A10]	1.2E+ 04
CCCCCCCCCCCCCCC(=O)OCC(CCCCCC(CC)CC)OC(=O)CCCCN(C)C (centres unmarked) [E20C10A11]	1.9E+ 04
CCCCCCCCCCCCCCC(=O)OCC(CCCCCC(CC)CC)OC(=O)CCCCCN(C)C (centres unmarked) [E20C10A12]	3.6E+ 04
CCCCCCCCCCCCCCCC(=O)OCC(CCCCCC(CC)CC)OC(=O)CCCN(C)C (centres unmarked) [E20C11A9, 2-((4-(Dimethylamino)Butyryl)Oxy)-8-Ethyldecyl Palmitate]	9.9E+ 04
CCCCCCCCCCCCCCCC(=O)OCC(CCCCCC(CC)CC)OC(=O)C(C)CCN(C)C (centres unmarked) [E20C11A10]	4.5E+ 04
CCCCCCCCCCCCCCCC(=O)OCC(CCCCCC(CC)CC)OC(=O)C1CCN(C)CC1 (centres unmarked) [E20C11A23]	1.6E+ 04
CCCCCCCCCCCCCCCCC(=O)OCC(CCCCCC(CC)CC)OC(=O)CCCN(C)C (centres unmarked) [E20C12A9]	4.9E+ 04
CCCCCCCCCCCCCCCCC(=O)OCC(CCCCCC(CC)CC)OC(=O)C(C)CCN(C)C (centres unmarked) [E20C12A10]	9.6E+ 04
CCCCCCCCCCCCCCCCC(=O)OCC(CCCCCC(CC)CC)OC(=O)C1CCN(C)CC1 (centres unmarked) [E20C12A23]	1.7E+ 04
CCCCCCC(CCCCCC)C(=O)OCC(CCCCCC(CC)CC)OC(=O)CCCN(C)C (centres unmarked) [E20C64A9]	3.0E+ 04
CCCCCCCCCCC(C)(C)C(=O)OCC(CCCCCC(CC)CC)OC(=O)CCCN(C)C (centres unmarked) [E20C66A9]	5.9E+ 04

SMILES	Luciferase luminescence intensity
CCC(CC)CCCCCC(COC(=O)CCCCCCCCCCCC(C)C)OC(=O)CCCN(C)C (centres unmarked) [E20C67A9]	9.5E+ 03
CCCCCCCCC(CCCCCC)C(=O)OCC(CCCCCC(CC)CC)OC(=O)CCCN(C)C (centres unmarked) [E20C71A9]	6.6E+ 04
CCCCCCCCCCCCCC(C)C(=O)OCC(CCCCCC(CC)CC)OC(=O)CCCN(C)C (centres unmarked) [E20C72A9]	4.7E+ 03
CCCCCCCCCCCCCCCC(=O)OCC(OC(=O)CCCN(C)C)C(CCCC)CCCCC (centres unmarked) [E21C11A9]	8.7E+ 03
CCCCCCCCCCCCCCCC(=O)OCC(OC(=O)C(C)CCN(C)C)C(CCCC)CCCCC (centres unmarked) [E21C11A10]	1.7E+ 04
CCCCCCCCCCCCCCCC(=O)OCC(OC(=O)CCCCN(C)C)C(CCCC)CCCCC (centres unmarked) [E21C11A11]	4.7E+ 04
CCCCCCCCCCCCCCCCC(=O)OCC(OC(=O)CCCN(C)C)C(CCCC)CCCCC (centres unmarked) [E21C12A9]	5.4E+ 04
CCCCCCCCCCCCCCCCC(=O)OCC(OC(=O)C(C)CCN(C)C)C(CCCC)CCCCC (centres unmarked) [E21C12A10]	8.9E+ 04
CCCCCCCCCCCCCCCCC(=O)OCC(OC(=O)CCCCN(C)C)C(CCCC)CCCCC (centres unmarked) [E21C12A11]	9.5E+ 04
CCCCCCCCCCCCCCCCCC(=O)OCC(OC(=O)CCCN(C)C)C(CCCC)CCCCC (centres unmarked) [E21C13A9]	6.7E+ 04
CCCCCCCCCCCCCCCCCC(=O)OCC(OC(=O)CCCCN(C)C)C(CCCC)CCCCC (centres unmarked) [E21C13A11]	6.4E+ 04
CCCCCCCCCCCCCCCCCCC(=O)OCC(OC(=O)CCCN(C)C)C(CCCC)CCCCC (centres unmarked) [E21C14A9]	4.5E+ 04
CCCCCC(CCCC)C(COC(=O)CCCCCCCCCCCC(C)C)OC(=O)CCCN(C)C (centres unmarked) [E21C67A9]	3.2E+ 04
CCCCCCCCC(CCCCCC)C(=O)OCC(OC(=O)C1CCN(C)CC1)C(CCCC)CCCCC (centres unmarked) [E21C71A23]	1.9E+ 04
CCCCCCCCCCCCCC(=O)OC(CC(F)(F)C(F)(F)C(F)(F)C(F)(F)C(F)(F)C(F)(F)F)OC(=O)CCCN(C)C (centres unmarked) [E24C9A9, 1-((4-(Dimethylamino)Butyryl)Oxy)-3,3,4,4,5,5,6,6,7,7,8,8,8-Tridecafluorooctyl Tetradecanoate]	1.1E+ 04
